Test results as given in ChEMBL document CHEMBL1201862, “PubChem BioAssay data set” (2004).
The source made the active and inactive calls.

Assays:
[1] = biological target: T1, Carboxy-terminal domain RNA polymerase II polypeptide A small phosphatase 1 (Homo sapiens, UniProt Q9GZU7); assay: inhibitors of CTDSP1, concentration-response testing, biochemical assay, absorbance-based, actives from ultra-high-throughput screening (AID 540297); type: functional
T1 sequence (Q9GZU7 whole entry): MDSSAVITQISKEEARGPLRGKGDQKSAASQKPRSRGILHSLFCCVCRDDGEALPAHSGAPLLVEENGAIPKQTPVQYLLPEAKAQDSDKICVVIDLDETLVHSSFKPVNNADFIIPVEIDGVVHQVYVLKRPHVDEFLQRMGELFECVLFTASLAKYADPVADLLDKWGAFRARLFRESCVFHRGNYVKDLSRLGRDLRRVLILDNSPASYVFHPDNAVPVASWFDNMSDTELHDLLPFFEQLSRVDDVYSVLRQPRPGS

[2] = cytotoxicity in HEK-293T cells, dose response, cytotoxicity control for TCR NF-kB inhibitor project, luminescence, T-cell screen hits (AID 489026); type: functional, cell-based;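 note: cells exposed to compound about 14 hours before the viability readout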
[3] = biological target: T2, Long-chain-fatty-acid--AMP ligase FadD28 (Mycobacterium tuberculosis, UniProt P9WQ59); assay: Fluorescence polarization aasay to screen for inhibitors that compete for the binding of FadD28 to a bisubstrate Measured in Biochemical System Using Plate Reader - 2147-01_Inhibitor_Dose_CherryPick_Activity.; type: functional, Mycobacterium tuberculosis H37Rv
T2 sequence (P9WQ59 whole entry): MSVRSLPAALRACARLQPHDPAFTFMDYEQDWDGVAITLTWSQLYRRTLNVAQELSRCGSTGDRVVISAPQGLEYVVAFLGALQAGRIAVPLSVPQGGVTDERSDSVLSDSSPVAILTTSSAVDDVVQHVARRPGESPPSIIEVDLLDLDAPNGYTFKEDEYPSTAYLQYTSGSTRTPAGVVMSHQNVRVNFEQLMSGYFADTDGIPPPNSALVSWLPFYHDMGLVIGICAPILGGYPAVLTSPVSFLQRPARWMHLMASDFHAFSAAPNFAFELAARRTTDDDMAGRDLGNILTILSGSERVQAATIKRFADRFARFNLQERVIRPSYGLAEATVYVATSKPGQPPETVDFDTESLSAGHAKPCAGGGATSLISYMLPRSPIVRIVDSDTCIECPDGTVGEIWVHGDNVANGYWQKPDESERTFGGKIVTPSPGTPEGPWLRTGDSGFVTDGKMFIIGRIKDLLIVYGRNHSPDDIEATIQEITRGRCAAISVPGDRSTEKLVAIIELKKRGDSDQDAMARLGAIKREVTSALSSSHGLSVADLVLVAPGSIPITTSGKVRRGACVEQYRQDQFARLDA

[4] = inhibitors of HIV Env-driven cell fusion, dose response, cherry-pick (AID 652057); type: functional, cell-based
[5] = ZM109 Env clade C HIV-1 fusion inhibitors, dose response, HeLa effector, CEM target cells, luciferase, cherry-pick (AID 652058); type: functional, cell-based
[6] = test system: Vero; assay: cells; type: functional; settings: Chlorocebus sabaeus
[7] = Shn3 3'UTR reporter inhibitors, dose response, cell-based, Clone20 osteoblasts, firefly luciferase, cherry-picked (AID 624132); type: functional;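 note: firefly luciferase luminescence from reporter carrying the Shn3 3'UTR in osteoblasts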
[8] = control 3'UTR Renilla luciferase suppression, dose response, counter-screen for Shn3 inhibitor project, cell-based, Clone20-Shn3RL, cherry-picked (AID 624133); type: functional
[9] = HepG2 cell cytotoxicity, dose response, cytotoxicity control for Shn3 inhibitor project, CellTiter-Glo, cherry-picked (AID 624134); type: functional, cell-based
[10] = inhibitors of clade B AD8 Env fusion, dose response, cell-based, cherry-pick (AID 652062); type: functional;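 note: luciferase signal from cell-cell fusion driven by HIV-1 clade B AD8 Env; potency is for inhibitors of fusion seen as a drop in luminescence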
[11] = off-target signal loss in HeLa-CEM21 co-culture – HeLa F-luc CTL cells, cherry-picked, counter-screen for HIV-1 Env fusion inhibitor project, dose response (AID 652040); type: functional, cell-based;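 note: potency for signal decrease marking cytotoxic or nonspecific inhibition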
[12] = HepG2 cell cytotoxicity, dose response, cytotoxicity control, cherry-picked samples (AID 1159577); type: functional, cell-based
[13] = P. falciparum Dd2 growth inhibitors, dose response, SYBR Green, cherry-picked samples (AID 1159567); type: functional, cell-based
[14] = biological target: Paired box protein Pax-8 (Homo sapiens, UniProt Q06710); assay: inhibitors of PAX8-driven TPO luciferase reporter, dose response, RMG-I cells, cherry-pick (AID 687027); type: functional, cell-based;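 note: luciferase reporter driven by Pax8 target thyroperoxidase promoter measured by SteadyGlo luminescence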
[15] = cells; type: functional
[16] = biological target: T3, DNA repair protein RAD52 homolog (Homo sapiens, UniProt P43351); type: functional, biochemical
T3 sequence (P43351 whole entry): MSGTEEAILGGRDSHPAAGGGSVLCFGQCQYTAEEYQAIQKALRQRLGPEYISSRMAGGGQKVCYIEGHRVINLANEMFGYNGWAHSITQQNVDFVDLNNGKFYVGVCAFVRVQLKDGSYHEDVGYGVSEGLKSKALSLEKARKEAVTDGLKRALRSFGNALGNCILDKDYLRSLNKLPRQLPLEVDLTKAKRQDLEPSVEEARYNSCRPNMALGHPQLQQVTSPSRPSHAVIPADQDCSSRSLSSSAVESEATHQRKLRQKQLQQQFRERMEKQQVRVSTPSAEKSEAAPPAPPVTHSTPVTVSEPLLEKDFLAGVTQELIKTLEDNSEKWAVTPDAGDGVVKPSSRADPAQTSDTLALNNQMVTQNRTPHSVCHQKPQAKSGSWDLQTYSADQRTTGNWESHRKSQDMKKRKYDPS

[17] = microbe, parasite or virus in culture; type: functional; settings: Mycobacterium tuberculosis
[18] = biological target: T4, Ubiquitin-conjugating enzyme E2 N (Homo sapiens, UniProt P61088); type: functional;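 note: Dose-response confirmation in a TR-FRET assay detecting UBC13-driven polyubiquitin chain formation, inhibition measured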
T4 sequence (P61088 whole entry): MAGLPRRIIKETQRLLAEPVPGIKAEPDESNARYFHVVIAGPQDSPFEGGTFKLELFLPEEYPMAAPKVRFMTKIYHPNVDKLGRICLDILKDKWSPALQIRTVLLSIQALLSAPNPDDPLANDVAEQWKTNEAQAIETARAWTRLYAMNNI

[19] = Luminescence Cell-Based Dose Retest to Confirm Inhibitors of Cancer Stem Cells. [Related pubchem assays (depositor defined):AID2717, AID2721]; type: functional; settings: Homo sapiens
[20] = growth suppression of PTEN-null colon cells, dose response, cell-based, HCT116 PTEN knockout (AID 1047); type: functional;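 note: HCT116 colon tumor cells with PTEN knocked out; cells exposed to compound for 60 hours before readout; potency for loss of cell viability measured by luminescence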
[21] = test system: BJ; assay: cells; type: functional, cell-based; settings: Homo sapiens
[22] = test system: BJ; assay: cytotoxicity toward BJ-TERT fibroblasts, dose response, cell-based, RAS-independent, luminescence (AID 1933); type: functional; settings: Homo sapiens
[23] = growth suppression of beta-catenin-knockout colon cells, dose response, cell-based, HCT116, human colon tumor (AID 1045); type: functional;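 note: HCT116 colon tumor cells with beta catenin knocked out; cells exposed to compound for 60 hours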
[24] = test system: BJ; assay: cytotoxicity toward BJ-TERT-LT-ST fibroblasts, dose response, cell-based, RAS-independent, luminescence (AID 1935); type: functional; settings: Homo sapiens;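 note: BJ fibroblasts immortalized with TERT plus LT and ST oncogenes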
[25] = cytotoxicity toward DRD oncogenic fibroblasts, dose response, cell-based, non-viral oncogenic, luminescence (AID 1934); type: functional; settings: Homo sapiens

Paired box protein Pax-8, sequence (Q06710 whole entry): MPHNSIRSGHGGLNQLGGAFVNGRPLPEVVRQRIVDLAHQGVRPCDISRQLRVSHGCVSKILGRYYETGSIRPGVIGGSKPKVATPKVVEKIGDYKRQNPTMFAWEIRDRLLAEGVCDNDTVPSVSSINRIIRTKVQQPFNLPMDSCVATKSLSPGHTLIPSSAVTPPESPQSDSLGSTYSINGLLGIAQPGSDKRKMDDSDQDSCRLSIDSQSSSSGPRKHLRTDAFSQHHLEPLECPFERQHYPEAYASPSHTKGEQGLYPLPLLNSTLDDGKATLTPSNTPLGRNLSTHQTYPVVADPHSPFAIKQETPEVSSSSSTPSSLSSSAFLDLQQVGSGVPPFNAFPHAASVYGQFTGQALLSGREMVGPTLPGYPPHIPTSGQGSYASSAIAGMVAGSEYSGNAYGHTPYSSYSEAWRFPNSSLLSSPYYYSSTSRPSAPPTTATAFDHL

In the case of `Cc1cccc(N2CCN(C(=O)c3ccc(S(=O)(=O)N(C)c4ccccc4)cc3)CC2)c1C`, the IC50 [1] is reported as 12 µM (active) and the IC50 [2] is reported as > 80 µM (inactive).

In the case of `COc1ccc(C(=O)Cn2c(=O)oc3ccc(C)cc32)cc1`, the AC50 [3] is reported as 36.7 µM (active).

For `COc1ccc(NS(=O)(=O)c2cc(NC(=O)COc3ccccc3)ccc2N2CCOCC2)cc1`, the AC50 [3] was > 100 µM (inactive).

In the case of `O=C(NCCCc1nc2ccccc2[nH]1)c1ccco1`, the AC50 [4] is reported as 48.8 µM (active) and the AC50 [5] is reported as 1.61 µM (active).

In the case of `CCNc1ncnc2c1cnn2C1CCCO1` (stereo unspecified), the AC50 [5] is reported as 13.5 µM (active).

In the case of `CCCCCCNC(=O)O[C@H]1Cn2c(=O)ccc(=O)n2[C@@H]2CN(S(=O)(=O)c3ccc(C)cc3)C[C@]12O`, the CC50 [6] is reported as 24 µM (active), the AC50 [7] is reported as 14.1 µM (active) and the AC50 [8] is reported as 31.5 µM (active). The AC50 [9] was 19.1 µM (active).

In the case of `CC[C@@]1(C(=O)OC)N[C@H](CN(C)S(=O)(=O)c2ccc(-c3ccccc3)cc2)[C@@H]2C(=O)N(Cc3ccccc3)C(=O)[C@@H]21`, the AC50 [4] is reported as 2.09 µM (active), the AC50 [5] is reported as 2.28 µM (active) and the AC50 [10] is reported as 2.54 µM (active). For the same molecule, the AC50 [11] was 2.61 µM (active).

In the case of `C[C@@H]1CN([C@@H](C)CO)C(=O)Cc2cc(NC(=O)Nc3ccc(F)cc3)ccc2O[C@H]1CN(C)CC1CCCCC1`, the AC50 [12] is reported as 10.9 µM (active), the AC50 [13] is reported as 7.86 µM (active) and the AC50 [14] is reported as 20.4 µM (active).

With `O=C(N/N=C/c1ccc[nH]1)c1ccncc1` the IC50 [15] was 2.28 µM (active).

For `O=C(C1CCCC1)N1C[C@@H]2N[C@H](C1)[C@@H]2c1ccc(/C=C/c2ccccc2)cc1`, the AC50 [12] was 7.79 µM (active) and the AC50 [13] was 4.23 µM (active).

For `Cc1cc2nc(NC(=N)N)nc(C)c2cc1C`, the AC50 [16] was 3.41 µM (active).

For `COc1ccc(C2=Nn3c(nnc3-c3ccccc3F)SC2)cc1OC1CCCC1`, the CC50 [17] was 9.04 µM (active), the IC50 [18] was > 20 µM (inactive) and the AC50 [19] was 6.06 µM (active).

For `C[C@@]1(CO)[C@H](O)CC[C@@]2(C)[C@H]1CC[C@H]1C[C@@H]3C[C@@]12CC[C@]3(O)CO` [APHIDICOLIN], the EC50 [20] was 0.839 µM (active), the EC50 [21] was 28.6 µM (active) and the EC50 [22] was 38.6 µM (active). The EC50 [23] was 1.73 µM (active), the EC50 [24] was > 150 µM (not active) and the EC50 [25] was > 150 µM (inconclusive).
